Test: xn = mol fraction of the nth substance listed
Details: Liquid, Vibrating tube method

CC(C)(C)Cl [2-chloro-2-methylpropane] + CCCCCCC
mass density [kg/m3]
Details | 283.15 K | 293.15 K
100 kPa, x2 = 0.0554 | 842.44 | 830.68
100 kPa, x2 = 0.1017 | 832.31 | 820.81
100 kPa, x2 = 0.2004 | 811.94 | 800.91
100 kPa, x2 = 0.3016 | 792.65 | 782.03
100 kPa, x2 = 0.4097 | 773.66 | 763.43
100 kPa, x2 = 0.498 | 759.27 | 749.33
100 kPa, x2 = 0.5983 | 744.02 | 734.42
100 kPa, x2 = 0.7017 | 729.43 | 720.16
100 kPa, x2 = 0.7995 | 716.55 | 707.61
100 kPa, x2 = 0.9032 | 703.79 | 695.15
100 kPa, x2 = 0.9482 | 698.49 | 689.98
2000 kPa, x2 = 0.0554 | 844.68 | 833.14
2000 kPa, x2 = 0.1017 | 834.48 | 823.24
2000 kPa, x2 = 0.2004 | 814.1 | 803.29
2000 kPa, x2 = 0.3016 | 794.78 | 784.22
2000 kPa, x2 = 0.4097 | 775.6 | 765.58
2000 kPa, x2 = 0.498 | 761.33 | 751.59
2000 kPa, x2 = 0.5983 | 745.93 | 736.51
2000 kPa, x2 = 0.7017 | 731.35 | 722.23
2000 kPa, x2 = 0.7995 | 718.47 | 709.61
2000 kPa, x2 = 0.9032 | 705.72 | 697.14
2000 kPa, x2 = 0.9482 | 700.41 | 691.94
5000 kPa, x2 = 0.0554 | 848.13 | 836.88
5000 kPa, x2 = 0.1017 | 837.91 | 826.9
5000 kPa, x2 = 0.2004 | 817.4 | 806.74
5000 kPa, x2 = 0.3016 | 797.97 | 787.77
5000 kPa, x2 = 0.4097 | 778.78 | 769.03
5000 kPa, x2 = 0.498 | 764.17 | 754.81
5000 kPa, x2 = 0.5983 | 748.83 | 739.75
5000 kPa, x2 = 0.7017 | 734.11 | 725.28
5000 kPa, x2 = 0.7995 | 721.17 | 712.57
5000 kPa, x2 = 0.9032 | 708.35 | 700.04
5000 kPa, x2 = 0.9482 | 703.02 | 694.81
7000 kPa, x2 = 0.0554 | 850.47 | 839.29
7000 kPa, x2 = 0.1017 | 840.22 | 829.3
7000 kPa, x2 = 0.2004 | 819.61 | 809.03
7000 kPa, x2 = 0.3016 | 800.1 | 789.87
7000 kPa, x2 = 0.4097 | 780.74 | 771.15
7000 kPa, x2 = 0.498 | 766.3 | 756.85
7000 kPa, x2 = 0.5983 | 750.75 | 741.66
7000 kPa, x2 = 0.7017 | 736.02 | 727.16
7000 kPa, x2 = 0.7995 | 722.99 | 714.5
7000 kPa, x2 = 0.9032 | 710.1 | 701.82
7000 kPa, x2 = 0.9482 | 704.76 | 696.6
10000 kPa, x2 = 0.0554 | 853.75 | 842.85
10000 kPa, x2 = 0.1017 | 843.46 | 832.92
10000 kPa, x2 = 0.2004 | 822.51 | 812.44
10000 kPa, x2 = 0.3016 | 803.09 | 793.26
10000 kPa, x2 = 0.4097 | 783.69 | 774.21
10000 kPa, x2 = 0.498 | 769.05 | 759.84
10000 kPa, x2 = 0.5983 | 753.62 | 744.65
10000 kPa, x2 = 0.7017 | 738.75 | 730.1
10000 kPa, x2 = 0.7995 | 725.53 | 717.31
10000 kPa, x2 = 0.9032 | 712.59 | 704.57
10000 kPa, x2 = 0.9482 | 707.21 | 699.31
20000 kPa, x2 = 0.0554 | 864 | 853.69
20000 kPa, x2 = 0.1017 | 853.55 | 843.51
20000 kPa, x2 = 0.2004 | 832.47 | 822.74
20000 kPa, x2 = 0.3016 | 812.54 | 803.2
20000 kPa, x2 = 0.4097 | 792.93 | 783.9
20000 kPa, x2 = 0.498 | 778.04 | –
20000 kPa, x2 = 0.5983 | 762.35 | –
20000 kPa, x2 = 0.7017 | 747.22 | –
20000 kPa, x2 = 0.7995 | 733.81 | –
20000 kPa, x2 = 0.9032 | 720.64 | –
20000 kPa, x2 = 0.9482 | 715.18 | –
30000 kPa, x2 = 0.0554 | 873.3 | –
30000 kPa, x2 = 0.1017 | 862.73 | –
30000 kPa, x2 = 0.2004 | 841.24 | –
30000 kPa, x2 = 0.3016 | 821.19 | –
30000 kPa, x2 = 0.4097 | 801.28 | –
30000 kPa, x2 = 0.498 | 786.13 | –
30000 kPa, x2 = 0.5983 | 770.17 | –
30000 kPa, x2 = 0.7017 | 754.83 | –
30000 kPa, x2 = 0.7995 | 741.14 | –
30000 kPa, x2 = 0.9032 | 727.83 | –
30000 kPa, x2 = 0.9482 | 722.3 | –
40000 kPa, x2 = 0.0554 | 881.82 | –
40000 kPa, x2 = 0.1017 | 870.96 | –
40000 kPa, x2 = 0.2004 | 849.41 | –
40000 kPa, x2 = 0.3016 | 829.08 | –
40000 kPa, x2 = 0.4097 | 808.91 | –
40000 kPa, x2 = 0.498 | 793.67 | –
40000 kPa, x2 = 0.5983 | 777.41 | –
40000 kPa, x2 = 0.7017 | 761.79 | –
40000 kPa, x2 = 0.7995 | 747.96 | –
40000 kPa, x2 = 0.9032 | 734.49 | –
40000 kPa, x2 = 0.9482 | 728.9 | –
50000 kPa, x2 = 0.0554 | 889.56 | –
50000 kPa, x2 = 0.1017 | 878.68 | –
50000 kPa, x2 = 0.2004 | 856.76 | –
50000 kPa, x2 = 0.3016 | 836.39 | –
50000 kPa, x2 = 0.4097 | 815.92 | –
50000 kPa, x2 = 0.498 | 800.51 | –
50000 kPa, x2 = 0.5983 | 784.09 | –
50000 kPa, x2 = 0.7017 | 768.34 | –
50000 kPa, x2 = 0.7995 | 754.42 | –
50000 kPa, x2 = 0.9032 | 740.62 | –
50000 kPa, x2 = 0.9482 | 734.97 | –
60000 kPa, x2 = 0.0554 | 896.85 | –
60000 kPa, x2 = 0.1017 | 885.94 | –
60000 kPa, x2 = 0.2004 | 863.93 | –
60000 kPa, x2 = 0.3016 | 843.17 | –
60000 kPa, x2 = 0.4097 | 822.77 | –
60000 kPa, x2 = 0.498 | 807.05 | –
60000 kPa, x2 = 0.5983 | 790.42 | –
60000 kPa, x2 = 0.7017 | 774.43 | –
60000 kPa, x2 = 0.7995 | 760.28 | –
60000 kPa, x2 = 0.9032 | 746.42 | –
60000 kPa, x2 = 0.9482 | 740.73 | –
65000 kPa, x2 = 0.0554 | 900.21 | –
65000 kPa, x2 = 0.1017 | 889.29 | –
65000 kPa, x2 = 0.2004 | 867.33 | –
65000 kPa, x2 = 0.3016 | 846.38 | –
65000 kPa, x2 = 0.4097 | 825.84 | –
65000 kPa, x2 = 0.498 | 809.97 | –
65000 kPa, x2 = 0.5983 | 793.31 | –
65000 kPa, x2 = 0.7017 | 777.27 | –
65000 kPa, x2 = 0.7995 | 763.11 | –
65000 kPa, x2 = 0.9032 | 749.1 | –
65000 kPa, x2 = 0.9482 | 743.43 | –

Reference: the NIST ThermoML archive (doi:10.1016/j.tca.2015.06.017)
